The target in data set [1] is T1, Endothelial PAS domain-containing protein 1 (Homo sapiens, UniProt Q99814). Briefly: Inhibition of HIF2alpha in human 786-0 cells expressing truncated HIF1alpha assessed as reduction in luciferase activity after 24 hrs by reporter gene assay. The class given is cell-based. In general terms: Reporter assays use an easily measured gene product as a stand-in for the process of interest.

In data set [2] the test system is 786-0. Briefly: Downregulation of HIF2alpha mRNA expression in human 786-0 cells after 48 hrs by RT-PCR analysis. The class given is functional, cell-based.
A short description of data set [3]: Downregulation of GLUT1 mRNA expression in human SK-RC-28 cells after 48 hrs by RT-PCR analysis. The class given is functional, cell-based.
The target in data set [4] is T1, Endothelial PAS domain-containing protein 1. Put plainly: Inhibition of HIF2alpha in human 786-0 cells assessed as reduction in CCND1 mRNA expression after 48 hrs by RT-PCR analysis. The class given is cell-based.
Data set [5] has the same target. Briefly: Inhibition of HIF2alpha in human RCC4 cells coexpressing HIF1alpha assessed as reduction in CCND1 mRNA expression after 48 hrs by RT-PCR analysis. The class given is cell-based.
Data set [6] has as its target Hypoxia-inducible factor 1-alpha (Homo sapiens) (UniProt Q16665). Put plainly: Inhibition of HIF1alpha in human SK-RC-28 cells assessed as reduction in VEGFA after 48 hrs by RT-PCR analysis. The format is cell-based.
In data set [7] the target is T1, Endothelial PAS domain-containing protein 1. Put plainly: Inhibition of HIF2alpha in human RCC4 cells coexpressing HIF1alpha assessed as reduction in TGFalpha mRNA expression after 48 hrs by RT-PCR analysis. The format is cell-based.
Data set [8] is described as follows: Downregulation of HIF1alpha mRNA expression in human RCC4 cells after 48 hrs by RT-PCR analysis. The format is functional, cell-based.
Data set [9] deals with 786-0. Briefly: Down regulation of carbonic anhydrase 9 expression in human 786-0 cells after 48 hrs by RT-PCR analysis. The class given is functional, cell-based.
Data set [10] can be described thus: Downregulation of HIF2alpha mRNA expression in human SK-RC-28 cells after 48 hrs by RT-PCR analysis. The format is functional, cell-based.
In data set [11] the target is Hypoxia-inducible factor 1-alpha (Homo sapiens) (UniProt Q16665). Put plainly: Inhibition of HIF1alpha in human SK-RC-28 cells assessed as reduction in carbonic anhydrase 9 expression after 48 hrs by RT-PCR analysis. The format is cell-based.
Chain of Hypoxia-inducible factor 1-alpha (Homo sapiens) (Q16665 whole entry, looked up, the tested form may be a part): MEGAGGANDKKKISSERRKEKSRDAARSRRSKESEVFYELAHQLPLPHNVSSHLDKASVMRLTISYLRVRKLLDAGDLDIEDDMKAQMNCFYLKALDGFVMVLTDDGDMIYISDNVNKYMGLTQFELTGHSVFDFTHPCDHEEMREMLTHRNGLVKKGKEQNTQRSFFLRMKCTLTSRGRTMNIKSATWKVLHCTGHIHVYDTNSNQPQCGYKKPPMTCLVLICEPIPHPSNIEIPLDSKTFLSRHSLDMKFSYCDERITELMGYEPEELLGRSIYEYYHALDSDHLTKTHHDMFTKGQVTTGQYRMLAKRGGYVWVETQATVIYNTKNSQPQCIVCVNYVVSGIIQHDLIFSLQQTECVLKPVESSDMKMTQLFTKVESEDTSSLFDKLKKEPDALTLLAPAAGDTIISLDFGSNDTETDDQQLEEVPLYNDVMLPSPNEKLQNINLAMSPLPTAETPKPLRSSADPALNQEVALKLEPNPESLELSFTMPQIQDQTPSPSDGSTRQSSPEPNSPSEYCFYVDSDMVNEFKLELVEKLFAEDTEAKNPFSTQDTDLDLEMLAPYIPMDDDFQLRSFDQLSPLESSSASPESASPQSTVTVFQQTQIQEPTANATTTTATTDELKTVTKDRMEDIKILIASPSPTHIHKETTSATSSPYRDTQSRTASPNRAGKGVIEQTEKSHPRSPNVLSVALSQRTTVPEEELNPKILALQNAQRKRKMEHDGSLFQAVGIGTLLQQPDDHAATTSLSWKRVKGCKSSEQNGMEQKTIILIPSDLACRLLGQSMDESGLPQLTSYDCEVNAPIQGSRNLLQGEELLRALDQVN
Data set [12] can be described thus: Downregulation of HIF1alpha mRNA expression in human SK-RC-28 cells after 48 hrs by RT-PCR analysis. The class given is functional, cell-based.
Data set [13] addresses T2, Hypoxia inducible factors; HIF-1-alpha, HIF-2-alpha (Homo sapiens) (UniProt Q16665+Q99814). Briefly: Inhibition of HIF1alpha/2alpha in human RCC4 cells assessed as reduction in VEGFA mRNA expression after 48 hrs by RT-PCR analysis. The format is cell-based.
For data set [14], the target named is T1, Endothelial PAS domain-containing protein 1. Briefly: Inhibition of HIF2alpha in human RCC4 cells coexpressing HIF1alpha assessed as reduction in GLUT1 mRNA expression after 48 hrs by RT-PCR analysis. The class given is cell-based.
Data set [15] deals with 786-0. Briefly: Downregulation of HIF1alpha mRNA expression in human 786-0 cells after 48 hrs by RT-PCR analysis. The class given is functional, cell-based.
Data set [16] can be described thus: Downregulation of TGFalpha mRNA expression in human SK-RC-28 cells after 48 hrs by RT-PCR analysis. The class given is functional, cell-based.
Data set [17] has as its target T1, Endothelial PAS domain-containing protein 1. Briefly: Inhibition of HIF2alpha in human 786-0 cells assessed as reduction in TGFalpha mRNA expression after 48 hrs by RT-PCR analysis. The class given is cell-based.
Data set [18] shares this target. Briefly: Inhibition of HIF2alpha in human 786-0 cells assessed as reduction in GLUT1 mRNA expression after 48 hrs by RT-PCR analysis. The format is cell-based.
Data set [19] in a line: Downregulation of CCND1 mRNA expression in human SK-RC-28 cells after 48 hrs by RT-PCR analysis. The class given is functional, cell-based.
Data set [20] in a line: Downregulation of HIF2alpha mRNA expression in human RCC4 cells after 48 hrs by RT-PCR analysis. The class given is functional, cell-based.
For data set [21], the target named is T1, Endothelial PAS domain-containing protein 1. Put plainly: Inhibition of HIF2alpha in human 786-0 cells assessed as reduction in VEGFA after 48 hrs by RT-PCR analysis. The format is cell-based.
Data set [22] deals with Hypoxia-inducible factor 1-alpha (Homo sapiens) (UniProt Q16665). Put plainly: Inhibition of HIF1alpha in human RCC4 cells coexpressing HIF2alpha assessed as decrease in carbonic anhydrase 9 mRNA expression after 48 hrs by RT-PCR analysis. The format is cell-based.
The nature of data set [23]: Downregulation of HIF1alpha mRNA expression in human RCC4 cells at 20 uM after 48 hrs by RT-PCR analysis. The class given is functional, cell-based.
Data set [24] relates to 786-0. Briefly: Inhibition of total protein expression in serum deprived human 786-0 cells at 20 uM after 48 hrs relative to control. The format is cell-based. Particulars: 786-0, 48 h, 20 µM.
Data set [25] has as its target T1, Endothelial PAS domain-containing protein 1. Put plainly: Inhibition of HIF2alpha in human RCC4 cells coexpressing HIF1alpha assessed as reduction in CCND1 mRNA expression at 20 uM after 48 hrs by RT-PCR analysis. The format is cell-based.
The target is the same in data set [26]. Put plainly: Inhibition of HIF2alpha in human RCC4 cells coexpressing HIF1alpha assessed as reduction in GLUT1 mRNA expression at 20 uM after 48 hrs by RT-PCR analysis. The format is cell-based.
The subject of data set [27] is 786-0. Briefly: Inhibition of HIF-mediated VEGFA protein expression in serum deprived human 786-0 cells at 20 uM after 48 hrs relative to control. The class given is cell-based.
Data set [28] is described as follows: Downregulation of GLUT1 mRNA expression in human SK-RC-28 cells at 20 uM after 48 hrs by RT-PCR analysis. The class given is functional, cell-based.
Data set [29] addresses T1, Endothelial PAS domain-containing protein 1. Put plainly: Inhibition of HIF2alpha in human 786-0 cells assessed as reduction in VEGFA mRNA expression at 20 uM after 48 hrs by RT-PCR analysis. The class given is cell-based.
Data set [30] concerns the target Hypoxia-inducible factor 1-alpha (Homo sapiens) (UniProt Q16665). Briefly: Inhibition of HIF1alpha in human SK-RC-28 cells assessed as reduction in carbonic anhydrase expression at 20 uM after 48 hrs by RT-PCR analysis. The format is cell-based.
Data set [31] shares this target. Briefly: Inhibition of HIF1alpha in human SK-RC-28 cells assessed as reduction in VEGFA expression at 20 uM after 48 hrs by RT-PCR analysis. The class given is cell-based.
A short description of data set [32]: Downregulation of HIF1alpha mRNA expression in human SK-RC-28 cells at 20 uM after 48 hrs by RT-PCR analysis. The format is functional, cell-based.
The nature of data set [33]: Cytotoxicity against human RCC4 cells expressing HIF2alpha and HIF1alpha after 2 days by XTT assay. The class given is functional, cell-based. Particulars: RCC4, 48 h. For orientation: Tetrazolium dyes change colour on reduction, which living cells bring about.
Data set [34] can be described thus: Downregulation of TGFalpha mRNA expression in human SK-RC-28 cells at 20 uM after 48 hrs by RT-PCR analysis. The format is functional, cell-based.
The subject of data set [35] is 786-0. Put plainly: Downregulation of HIF1alpha mRNA expression in human 786-0 cells at 20 uM after 48 hrs by RT-PCR analysis. The format is functional, cell-based.
A short description of data set [36]: Downregulation of HIF2alpha mRNA expression in human RCC4 cells at 20 uM after 48 hrs by RT-PCR analysis. The format is functional, cell-based.
Data set [37] addresses T1, Endothelial PAS domain-containing protein 1. Put plainly: Inhibition of HIF2alpha in human 786-0 cells assessed as reduction in GLUT1 mRNA expression at 20 uM after 48 hrs by RT-PCR analysis. The format is cell-based.
Data set [38] shares this target. Briefly: Inhibition of HIF2alpha in human RCC4 cells coexpressing HIF1alpha assessed as reduction in TGFalpha mRNA expression at 20 uM after 48 hrs by RT-PCR analysis. The format is cell-based.
The subject of data set [39] is 786-0. Put plainly: Downregulation of HIF2alpha mRNA expression in human 786-0 cells at 20 uM after 48 hrs by RT-PCR analysis. The class given is functional, cell-based.
In data set [40] the target is T1, Endothelial PAS domain-containing protein 1. Put plainly: Inhibition of HIF2alpha in human 786-0 cells assessed as reduction in TGFalpha mRNA expression at 20 uM after 48 hrs by RT-PCR analysis. The class given is cell-based.
Data set [41] in a line: Downregulation of CCND1 mRNA expression in human SK-RC-28 cells at 20 uM after 48 hrs by RT-PCR analysis. The class given is functional, cell-based.
Data set [42] concerns 786-0. Put plainly: Cytotoxicity against human 786-0 cells expressing HIF2alpha after 2 days by XTT assay. The class given is functional, cell-based. As to conditions: 786-0, 48 h.
Data set [43] concerns the target T1, Endothelial PAS domain-containing protein 1. Put plainly: Inhibition of HIF2alpha in human 786-0 cells assessed as reduction in CCND1 mRNA expression at 20 uM after 48 hrs by RT-PCR analysis. The format is cell-based.
The target in data set [44] is T2, Hypoxia inducible factors; HIF-1-alpha, HIF-2-alpha (Homo sapiens). Put plainly: Inhibition of HIF1alpha/2alpha in human RCC4 cells assessed as reduction in VEGFA mRNA expression at 20 uM after 48 hrs by RT-PCR analysis. The format is cell-based.
A short description of data set [45]: Cytotoxicity against human SK-RC-28 cells expressing HIF1alpha after 2 days by XTT assay. The class given is functional, cell-based. As to conditions: 48 h.
The nature of data set [46]: Downregulation of HIF2alpha mRNA expression in human SK-RC-28 cells at 20 uM after 48 hrs by RT-PCR analysis. The class given is functional, cell-based.
The target in data set [47] is Hypoxia-inducible factor 1-alpha (Homo sapiens) (UniProt Q16665). Put plainly: Induction of HIF1alpha in human RCC4 cells assessed as increase in […] 9 expression at 20 uM after 48 hrs by RT-PCR analysis relative to control. The format is cell-based.

We go through eight compounds from ChEMBL document CHEMBL2177034, “Inhibition of hypoxia inducible factor-2 transcription: isolation of active modulators from marine sponges” (J Nat Prod, 2012).

The source made the active and inactive calls. The rule behind the calls is not given here.

The term EC50 denotes the concentration needed to bring the measured effect to its halfway point. The IC50 is the concentration that inhibits the measured activity by half. Lower therefore signals greater potency in that assay.

T1 sequence (Q99814 whole entry, the tested form may be a part): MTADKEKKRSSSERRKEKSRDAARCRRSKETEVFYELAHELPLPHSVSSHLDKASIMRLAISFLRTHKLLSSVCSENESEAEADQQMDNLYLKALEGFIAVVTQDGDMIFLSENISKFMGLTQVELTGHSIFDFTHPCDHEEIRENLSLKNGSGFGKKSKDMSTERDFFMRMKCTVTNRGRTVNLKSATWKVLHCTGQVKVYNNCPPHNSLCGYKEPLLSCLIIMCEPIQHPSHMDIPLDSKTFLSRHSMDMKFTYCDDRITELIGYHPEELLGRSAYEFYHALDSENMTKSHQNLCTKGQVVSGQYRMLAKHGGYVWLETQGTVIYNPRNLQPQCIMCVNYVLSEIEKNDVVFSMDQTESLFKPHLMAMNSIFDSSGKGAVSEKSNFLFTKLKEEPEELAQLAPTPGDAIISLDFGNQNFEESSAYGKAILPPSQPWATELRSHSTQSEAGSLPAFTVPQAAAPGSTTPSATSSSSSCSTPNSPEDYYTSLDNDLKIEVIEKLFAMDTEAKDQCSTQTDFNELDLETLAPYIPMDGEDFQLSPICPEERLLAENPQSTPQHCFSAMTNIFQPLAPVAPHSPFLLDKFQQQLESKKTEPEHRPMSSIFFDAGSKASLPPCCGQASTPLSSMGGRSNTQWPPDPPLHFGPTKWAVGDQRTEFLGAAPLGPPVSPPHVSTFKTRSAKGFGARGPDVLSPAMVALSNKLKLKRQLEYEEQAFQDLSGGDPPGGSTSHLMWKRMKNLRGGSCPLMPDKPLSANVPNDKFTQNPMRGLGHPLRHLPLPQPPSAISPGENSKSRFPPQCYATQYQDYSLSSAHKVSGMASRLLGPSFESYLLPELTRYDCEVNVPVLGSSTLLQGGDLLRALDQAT

For the compound `CC(=O)O[C@H]1C[C@H]2[C@@](C)(CC[C@H]3C(C)(C)CCC[C@@]32C=O)[C@@H]2CC=C(C(C)=O)[C@H](C=O)[C@@]12C`, in data set [1], the EC50 amounted to 4.2 µM.

In the case of `CC(=O)O[C@@H]1OC=C2[C@@H](OC(C)=O)C[C@H]3[C@]4(C)CC[C@H]5C(C)(C)CCC[C@]5(C)[C@H]4C[C@@H](O)[C@]3(C)[C@H]21` [HETERONEMIN], in data set [1], the half-maximal effective concentration (EC50) amounted to 1.2 µM.

As to `C/C=C(/C)C(=O)OCc1nccc2c1C(=O)C(O)=C(C)C2=O`, the result (with 786-0 [2]; in data set [3]; in data set [8]; with 786-0 [9]; in data set [10]; in data set [12]) was inactive. Also, the result (in the data set on 786-0 [15]; in data set [16]; in data set [19]; in data set [20]) was inactive. Moreover, the inhibition entry in [4], in [5], in [6], in [7], in data set [11] and in data set [13] was “inactive” throughout. Besides, the inhibition result in data set [14], in data set [17], in data set [18], in data set [21] and in data set [22] was “inactive” throughout. For the same compound, the EC50 in data set [1] was greater than 100 µM.

As to `CC1(C)CCC[C@]2(C)[C@H]3C=C4C=C(O)C(=O)C=C4O[C@@]3(C)CC[C@@H]12` [PUUPEHENONE], the outcome (in data set [23]; in the data set with 786-0 [35]; in data set [36]; in the data set on 786-0 [39]) was Active. In the data set on 786-0 [24], the Activity result is recorded as “Toxic”. Moreover, the inhibition entry (in data set [25]; in [26]; in the data set on 786-0 [27]; in data set [29]; in data set [37]; in data set [38]) was “Active” throughout. Moreover, the inhibition entry in data set [40], in data set [43] and in [44] was “Active” each time. Moreover, the result in data set [28], in data set [32], in data set [34], in data set [41] and in data set [46] was inactive. Moreover, the inhibition result in data set [30] and in data set [31] was “inactive” in each case. Moreover, the half-maximal inhibitory concentration (IC50) in data set [33] stood at 18 µM; in the data set on 786-0 [42], 17.7 µM; in data set [45], 15.5 µM. Also, the EC50 in data set [1] came to 3.3 µM. Also, in data set [47], the fold change (FC) came out at 4.

Regarding `COc1cc2ccnc3c2c(c1OC)NC=C3` [AAPTAMINE], the EC50 in [1] was greater than 100 µM.

Take `C[C@@]12CCCc3coc(c31)C(=O)c1cc3c(cc12)C(=O)C=CC3=O` [XESTOQUINONE]: the EC50 in data set [1] is greater than 100 µM.

Consider `CC(=O)OC[C@]12CCCC(C)(C)[C@@H]1CC[C@]1(C)[C@@H]2C[C@H]2OC(=O)[C@H]3[C@H](C(C)=O)[C@@H](O)C[C@@H]1[C@]23C`, for which the EC50 in data set [1] is greater than 100 µM.

Regarding `COC1=C(C)C(=O)c2cc(=O)n(C)c(C)c2C1=O` [MIMOSAMYCIN], the EC50 in data set [1] was greater than 100 µM.
